According to patent publication US20230002397A1, “SMALL MOLECULE DEGRADERS OF HELIOS AND METODS OF USE” (DANA-FARBER CANCER INSTITUTE, INC., priority 2019, published 2023):

Target: T1, IKZF2 (Homo sapiens, UniProt Q96SW2+Q9UKS7)
T1 construct: CRISPR/Cas9—mediated insertion of the HiBiT peptide tag (Promega™) to the N-terminus of the IKZF2 gene locus; endogenous in cells; host or cells: MOLT4 cells, with CRISPR/Cas9 knock-in of HiBiT at the endogenous IKZF2 locus
Assay: HiBit-IKZF2 assay (HiBiT-Helios degradation in MOLT4 cells)
Assay type: cell-based
Settings: for Dmax: MOLT-4, extent of degradation from highest to lowest concentration, 10 μM to 0.00026 μM, read-out: Dmax; for DC50: concentration at which 50% of HiBiT-Helios degradation was achieved
Summary of the method: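 MOLT4 cells carried an endogenous N-terminal HiBiT tag on IKZF2, knocked in by CRISPR. Cells were treated in triplicate at 13 concentrations (10 μM–0.00026 μM), and remaining HiBiT-Helios was read by lytic luminescence at set timepoints. Data were normalized to DMSO to give the 50% degradation concentration, with Dmax taken from the luminescence range.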

T1 sequence (Q9UKS7 whole entry): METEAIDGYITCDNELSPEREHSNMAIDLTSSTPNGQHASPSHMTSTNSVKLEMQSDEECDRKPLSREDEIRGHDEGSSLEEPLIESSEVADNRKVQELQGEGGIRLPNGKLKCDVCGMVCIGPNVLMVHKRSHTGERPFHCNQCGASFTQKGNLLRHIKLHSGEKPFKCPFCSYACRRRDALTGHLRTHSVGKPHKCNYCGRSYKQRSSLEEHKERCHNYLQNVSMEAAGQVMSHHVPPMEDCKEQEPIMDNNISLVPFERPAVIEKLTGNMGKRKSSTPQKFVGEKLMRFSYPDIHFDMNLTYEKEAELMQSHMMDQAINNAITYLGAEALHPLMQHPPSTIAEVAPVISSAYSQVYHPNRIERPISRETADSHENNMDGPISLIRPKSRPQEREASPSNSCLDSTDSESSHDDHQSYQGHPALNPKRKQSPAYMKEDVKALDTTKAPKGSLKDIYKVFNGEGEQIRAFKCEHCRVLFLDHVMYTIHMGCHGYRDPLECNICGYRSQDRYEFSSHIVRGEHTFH
T1 sequence (Q96SW2 whole entry): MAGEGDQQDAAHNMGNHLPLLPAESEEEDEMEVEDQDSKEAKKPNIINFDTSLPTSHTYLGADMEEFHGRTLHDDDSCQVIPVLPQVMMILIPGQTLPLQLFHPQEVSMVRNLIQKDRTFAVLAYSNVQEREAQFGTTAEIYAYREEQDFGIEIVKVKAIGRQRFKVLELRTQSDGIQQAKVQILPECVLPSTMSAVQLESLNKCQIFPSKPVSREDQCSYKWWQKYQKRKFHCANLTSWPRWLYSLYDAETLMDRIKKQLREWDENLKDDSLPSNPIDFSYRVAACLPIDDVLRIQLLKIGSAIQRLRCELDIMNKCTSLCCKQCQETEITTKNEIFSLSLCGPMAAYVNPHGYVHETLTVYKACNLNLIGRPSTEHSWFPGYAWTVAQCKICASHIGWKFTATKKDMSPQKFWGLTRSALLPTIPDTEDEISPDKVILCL
T1 sequence (Q16531 whole entry partner): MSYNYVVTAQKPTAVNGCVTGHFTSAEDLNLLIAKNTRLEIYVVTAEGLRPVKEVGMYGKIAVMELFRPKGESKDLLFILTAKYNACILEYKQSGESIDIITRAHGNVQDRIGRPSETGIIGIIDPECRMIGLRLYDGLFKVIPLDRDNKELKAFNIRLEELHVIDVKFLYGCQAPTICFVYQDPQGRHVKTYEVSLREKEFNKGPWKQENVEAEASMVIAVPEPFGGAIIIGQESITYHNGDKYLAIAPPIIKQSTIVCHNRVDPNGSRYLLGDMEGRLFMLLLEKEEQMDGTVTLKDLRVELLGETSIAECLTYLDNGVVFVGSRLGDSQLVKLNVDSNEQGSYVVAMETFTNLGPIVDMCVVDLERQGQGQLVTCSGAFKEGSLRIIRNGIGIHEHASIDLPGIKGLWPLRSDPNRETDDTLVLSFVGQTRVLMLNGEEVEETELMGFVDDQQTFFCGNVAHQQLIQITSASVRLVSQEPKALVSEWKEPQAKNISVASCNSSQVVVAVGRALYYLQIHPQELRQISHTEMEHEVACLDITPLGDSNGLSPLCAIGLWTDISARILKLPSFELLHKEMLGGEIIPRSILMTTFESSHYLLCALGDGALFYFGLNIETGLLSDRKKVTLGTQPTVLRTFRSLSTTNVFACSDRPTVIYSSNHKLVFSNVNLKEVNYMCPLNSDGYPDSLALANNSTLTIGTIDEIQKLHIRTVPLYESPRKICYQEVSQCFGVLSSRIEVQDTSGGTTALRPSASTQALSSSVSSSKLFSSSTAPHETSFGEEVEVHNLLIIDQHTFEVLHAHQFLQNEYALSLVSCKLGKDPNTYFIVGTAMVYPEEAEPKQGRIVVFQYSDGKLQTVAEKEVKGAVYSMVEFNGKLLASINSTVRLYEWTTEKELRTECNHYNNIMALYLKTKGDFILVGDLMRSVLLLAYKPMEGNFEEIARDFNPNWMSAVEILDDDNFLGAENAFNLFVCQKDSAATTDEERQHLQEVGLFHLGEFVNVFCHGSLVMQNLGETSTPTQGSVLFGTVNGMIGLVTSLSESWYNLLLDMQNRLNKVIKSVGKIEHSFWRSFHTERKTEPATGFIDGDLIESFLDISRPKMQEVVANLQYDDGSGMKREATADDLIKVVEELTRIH

SMILES | Dmax [%] | DC50 [nM]
O=C1CCC(N2Cc3cc(C4(O)CCN(Cc5ccc6c(c5)C(=O)N(c5ccns5)C6)CC4)ccc3C2=O)C(=O)N1 (stereo not drawn) [Compound 225] | > 70 | < 10
O=C1CCC(N2Cc3cc(C4(O)CCN(Cc5ccc6ncsc6c5)CC4)ccc3C2=O)C(=O)N1 (stereo not drawn) [Compound 242] | > 70 | < 10
N#CC1(COc2ccc(CN3CCC(c4ccc5c(c4)CN(C4CCC(=O)NC4=O)C5=O)CC3)cc2)CC1 (stereo not drawn) [Compound 45, 1-((4-((4-(2-(2,6-dioxopiperidin-3-yl)-1-oxoisoindolin-5-yl)piperidin-1-yl)methyl)phenoxy)methyl)cyclopropane-1-carbonitrile] | 50 to 70 | 10 to 30
O=C1CCC(N2Cc3cc(C4(O)CCN(Cc5ccc(Cl)cc5)CC4)ccc3C2=O)C(=O)N1 (stereo not drawn) [Compound 268] | > 70 | < 10
O=C1CCC(N2Cc3cc(C4(O)CCN(Cc5cccc(C(F)(F)F)c5)CC4)ccc3C2=O)C(=O)N1 (stereo not drawn) [Compound 250] | > 70 | < 10
O=C1CCC(N2Cc3cc(C4(O)CCN(Cc5ccc6ncn(-c7ccccn7)c(=O)c6c5)CC4)ccc3C2=O)C(=O)N1 (stereo not drawn) [Compound 235] | > 70 | < 10
O=C1CCC(N2Cc3cc(C4(O)CCN(Cc5cccc6scnc56)CC4)ccc3C2=O)C(=O)N1 (stereo not drawn) [Compound 241] | > 70 | < 10
O=C1CCC(N2Cc3cc(C4CCN(Cc5cnc(Nc6ccccc6)s5)CC4)ccc3C2=O)C(=O)N1 (stereo not drawn) [Compound 148] | 50 to 70 | 10 to 30
O=C1CCC(N2Cc3cc(C4CCN(Cc5cccc(Nc6cccnn6)c5)CC4)ccc3C2=O)C(=O)N1 (stereo not drawn) [Compound 127] | 50 to 70 | 10 to 30
O=C1CCC(N2Cc3cc(C4(O)CCN(Cc5ccc(-c6ccccc6)cc5)CC4)ccc3C2=O)C(=O)N1 (stereo not drawn) [Compound 206] | > 70 | < 10
O=C1CCC(N2Cc3cc(C4CCN(Cc5cccc(Nc6ccccn6)n5)CC4)ccc3C2=O)C(=O)N1 (stereo not drawn) [Compound 101] | 30 to 50 | 10 to 30
O=C1CCC(N2Cc3cc(C4CCN(Cc5ccnc(C(=O)Nc6ccccn6)c5)CC4)ccc3C2=O)C(=O)N1 (stereo not drawn) [Compound 130] | 50 to 70 | 10 to 30

Continued, values first:

Dmax [%] | DC50 [nM] | SMILES
50 to 70 | < 10 | O=C1CCC(N2Cc3cc(C4CCN(Cc5ccc6c(c5)C(=O)N(c5ccccc5)CCC6)CC4)ccc3C2=O)C(=O)N1 (stereo not drawn) [Compound 183, 3-(1-oxo-5-(1-((1-oxo-2-phenyl-2,3,4,5-tetrahydro-1H-benzo[c]azepin-8-yl)methyl)piperidin-4-yl)isoindolin-2-yl)piperidine-2,6-dione]
50 to 70 | < 10 | O=C1CCC(N2Cc3cc(C4CCN(Cc5cccc(Nc6ccc(F)cn6)c5)CC4)ccc3C2=O)C(=O)N1 (stereo not drawn) [Compound 132]
> 70 | 30 to 150 | O=C1CCC(N2Cc3cc(C4CCN(Cc5ccc6c(c5)C(=O)N(c5cccc(Cl)c5)C6)CC4)ccc3C2=O)C(=O)N1 (stereo not drawn) [Compound 176]
30 to 50 | 30 to 150 | O=C1CCC(N2Cc3cc(C4CCN(Cc5cccc6c5C(=O)N(c5ccccc5)C6)CC4)ccc3C2=O)C(=O)N1 (stereo not drawn) [Compound 121]
50 to 70 | < 10 | O=C1CCC(N2Cc3cc(C4CCN(Cc5ccc(S(=O)(=O)N6CCc7ccccc76)cc5)CC4)ccc3C2=O)C(=O)N1 (stereo not drawn) [Compound 167]
50 to 70 | 10 to 30 | O=C1CCC(N2Cc3cc(C4CCN(Cc5cc6c(cn5)CN(c5ccccc5)C6=O)CC4)ccc3C2=O)C(=O)N1 (stereo not drawn) [Compound 173]
30 to 50 | 30 to 150 | O=C1CCC(N2Cc3cc(C4CCN(Cc5cccc(N6C(=O)Cc7cccnc76)c5)CC4)ccc3C2=O)C(=O)N1 (stereo not drawn) [Compound 118]
50 to 70 | < 10 | O=C1CCC(N2Cc3cc(C4CCN(Cc5cccc(N6Cc7ccccc7C6=O)c5)CC4)ccc3C2=O)C(=O)N1 (stereo not drawn) [Compound 51]
30 to 50 | 30 to 150 | O=C1CCC(N2Cc3cc(C4CCN(Cc5ccc6c(c5)S(=O)(=O)N(c5ccccc5)C6)CC4)ccc3C2=O)C(=O)N1 (stereo not drawn) [Compound 80]
